≈ marks a conversion by molar mass, not a printed value. Where only a bound is given, the exact number is not on record here.

What all share (assay type): functional
In assay [1] the test system is Trichophyton mentagrophytes. The assay can be described thus: Antifungal activity against Trichophyton mentagrophytes 445 after 72 hrs by broth microdilution assay. The conditions noted are these: Trichophyton mentagrophytes, 445, 72 h. (In general: Broth dilution looks for growth in wells or tubes with falling amounts of substance.)
The test system of assay [2] is Candida albicans. The assay can be described thus: Antifungal activity against Candida albicans ATCC 44859 after 24 hrs by broth microdilution assay. The conditions noted are these: Candida albicans, ATCC 44859, 24 h.
The test system of assay [3] is Lichtheimia corymbifera. Kind of assay: Antifungal activity against Absidia corymbifera 272 after 24 hrs by broth microdilution assay. Conditions: Lichtheimia corymbifera, 272, 24 h.
Assay [4] deals with Aspergillus fumigatus. The assay can be described thus: Antifungal activity against Aspergillus fumigatus 231 after 48 hrs by broth microdilution assay. Conditions: Aspergillus fumigatus, 231, 48 h.
The subject of assay [5] is Candida tropicalis. The assay can be described thus: Antifungal activity against Candida tropicalis 159 after 24 hrs by broth microdilution assay. Conditions: Candida tropicalis, 159, 24 h.
The test system of assay [6] is Trichophyton mentagrophytes. Kind of assay: Antifungal activity against Trichophyton mentagrophytes 445 after 120 hrs by broth microdilution assay. The conditions noted are these: Trichophyton mentagrophytes, 445, 120 h.
Assay [7] has as its system Candida tropicalis. Kind of assay: Antifungal activity against Candida tropicalis 159 after 48 hrs by broth microdilution assay. Conditions: Candida tropicalis, 159, 48 h.
The test system of assay [8] is Trichosporon asahii. The assay can be described thus: Antifungal activity against Trichosporon asahii 1188 after 48 hrs by broth microdilution assay. Conditions: Trichosporon asahii, 1188, 48 h.
Assay [9] relates to Pichia kudriavzevii. The assay can be described thus: Antifungal activity against Candida krusei E28 after 48 hrs by broth microdilution assay. The conditions noted are these: Pichia kudriavzevii, E28, 48 h.
In assay [10] the test system is Pichia kudriavzevii. The assay can be described thus: Antifungal activity against Candida krusei E28 after 24 hrs by broth microdilution assay. Conditions: Pichia kudriavzevii, E28, 24 h.
The subject of assay [11] is Candida albicans. Kind of assay: Antifungal activity against Candida albicans ATCC 44859 after 48 hrs by broth microdilution assay. The conditions noted are these: Candida albicans, ATCC 44859, 48 h.
For assay [12], the system named is Nakaseomyces glabratus. The assay can be described thus: Antifungal activity against Candida glabrata 20/I after 48 hrs by broth microdilution assay. The conditions noted are these: Nakaseomyces glabratus, 20/I, 48 h.
The test system of assay [13] is Nakaseomyces glabratus. The assay can be described thus: Antifungal activity against Candida glabrata 20/I after 24 hrs by broth microdilution assay. Conditions: Nakaseomyces glabratus, 20/I, 24 h.
For assay [14], the system named is Trichosporon asahii. The assay can be described thus: Antifungal activity against Trichosporon asahii 1188 after 24 hrs by broth microdilution assay. The conditions noted are these: Trichosporon asahii, 1188, 24 h.
Assay [15] relates to Lichtheimia corymbifera. Kind of assay: Antifungal activity against Absidia corymbifera 272 after 48 hrs by broth microdilution assay. Conditions: Lichtheimia corymbifera, 272, 48 h.
In assay [16] the test system is Aspergillus fumigatus. Kind of assay: Antifungal activity against Aspergillus fumigatus 231 after 24 hrs by broth microdilution assay. Conditions: Aspergillus fumigatus, 231, 24 h.

By MIC is commonly meant the lowest concentration found to suppress growth. Low readings indicate a more susceptible organism, high ones a less susceptible organism. For `OC(Cn1cncn1)(Cn1cncn1)c1ccc(F)cc1F` [FLUCONAZOLE], the MIC in assay [1] was 17 µM (≈ 5.21 µg/mL); in [2] it was 1 µM (≈ 0.306 µg/mL); in assay [3] it was over 50 µM; in assay [4] it was over 50 µM; in assay [5] it was 3 µM (≈ 0.919 µg/mL); in [6], 26 µM (≈ 7.96 µg/mL). Further, the MIC was 5 µM (≈ 1.53 µg/mL) in assay [7]; 9 µM (≈ 2.76 µg/mL) in [8]; over 50 µM in assay [9]; over 50 µM in assay [10]; 2 µM (≈ 0.613 µg/mL) in assay [11]; over 50 µM in assay [12]. In addition, the minimal inhibitory concentration (MIC) in assay [13] is 22 µM (≈ 6.74 µg/mL); in [14], 4 µM (≈ 1.23 µg/mL); in assay [15], over 50 µM; in assay [16], over 50 µM.
Turning to `Oc1ccc(Cl)cc1C(=S)NCc1ccccc1`, the minimal inhibitory concentration (MIC) amounted to 1.95 µM (≈ 0.542 µg/mL) in [1]; 62.5 µM (≈ 17.4 µg/mL) in assay [2]; 15.6 µM (≈ 4.34 µg/mL) in [3]; 31.2 µM (≈ 8.68 µg/mL) in assay [4]; 62.5 µM (≈ 17.4 µg/mL) in assay [5]; 3.9 µM (≈ 1.08 µg/mL) in assay [6]. The minimum inhibitory concentration (MIC) came to 125 µM (≈ 34.7 µg/mL) in assay [7]; 31.2 µM (≈ 8.68 µg/mL) in assay [8]; 31.2 µM (≈ 8.68 µg/mL) in assay [9]; 15.6 µM (≈ 4.34 µg/mL) in [10]; 125 µM (≈ 34.7 µg/mL) in assay [11]; 62.5 µM (≈ 17.4 µg/mL) in [12]. The MIC is 15.6 µM (≈ 4.34 µg/mL) in [13], 31.2 µM (≈ 8.68 µg/mL) in [14], 15.6 µM (≈ 4.34 µg/mL) in assay [15] and 31.2 µM (≈ 8.68 µg/mL) in assay [16].
As for `Cc1ccc(CNC(=S)c2cc([N+](=O)[O-])ccc2O)cc1`, the MIC in assay [1] is 62.5 µM (≈ 18.9 µg/mL); in assay [2], 500 µM (≈ 151 µg/mL); in assay [3], 500 µM (≈ 151 µg/mL); in [4], 500 µM (≈ 151 µg/mL); in [5] it was over 500 µM; in [6], 62.5 µM (≈ 18.9 µg/mL). Moreover, the MIC in assay [7] is over 500 µM; in assay [8], 500 µM (≈ 151 µg/mL); in [9], over 500 µM; in assay [10], over 500 µM; in assay [11], over 500 µM; in [12], over 500 µM. Further, the MIC in [13] was over 500 µM; in assay [14] it was 500 µM (≈ 151 µg/mL); in assay [15] it was 500 µM (≈ 151 µg/mL); in assay [16], 500 µM (≈ 151 µg/mL).
For the compound `Oc1cc(Cl)ccc1C(=S)NCc1ccc(Br)cc1`, the MIC turned out to be 0.98 µM (≈ 0.35 µg/mL) in [1]; 15.6 µM (≈ 5.57 µg/mL) in assay [2]; 0.98 µM (≈ 0.35 µg/mL) in assay [3]; 7.81 µM (≈ 2.79 µg/mL) in assay [4]; 31.2 µM (≈ 11.1 µg/mL) in assay [5]; 1.95 µM (≈ 0.696 µg/mL) in [6]. In addition, the minimal inhibitory concentration (MIC) in assay [7] was 31.2 µM (≈ 11.1 µg/mL); in assay [8] it was 7.81 µM (≈ 2.79 µg/mL); in [9], 15.6 µM (≈ 5.57 µg/mL); in [10], 3.9 µM (≈ 1.39 µg/mL); in assay [11], 31.2 µM (≈ 11.1 µg/mL); in [12], 31.2 µM (≈ 11.1 µg/mL). The MIC is 31.2 µM (≈ 11.1 µg/mL) in assay [13], 7.81 µM (≈ 2.79 µg/mL) in assay [14], 1.95 µM (≈ 0.696 µg/mL) in assay [15] and 7.81 µM (≈ 2.79 µg/mL) in [16].
On to `Oc1ccc(Br)cc1C(=S)NCc1cccc(Br)c1`, for which the MIC came out at 1.95 µM (≈ 0.782 µg/mL) in assay [1]; 15.6 µM (≈ 6.27 µg/mL) in assay [2]; 3.9 µM (≈ 1.56 µg/mL) in [3]; 15.6 µM (≈ 6.27 µg/mL) in [4]; 15.6 µM (≈ 6.27 µg/mL) in [5]; 1.95 µM (≈ 0.782 µg/mL) in [6]. Moreover, the minimum inhibitory concentration (MIC) in assay [7] stood at 62.5 µM (≈ 25.1 µg/mL); in assay [8], 31.2 µM (≈ 12.5 µg/mL); in [9], 7.81 µM (≈ 3.13 µg/mL); in assay [10], 3.9 µM (≈ 1.56 µg/mL); in assay [11], 31.2 µM (≈ 12.5 µg/mL); in assay [12], 31.2 µM (≈ 12.5 µg/mL). In addition, the minimum inhibitory concentration (MIC) in [13] came to 7.81 µM (≈ 3.13 µg/mL); in assay [14], 15.6 µM (≈ 6.27 µg/mL); in assay [15] it was 3.9 µM (≈ 1.56 µg/mL); in assay [16] it was 7.81 µM (≈ 3.13 µg/mL).
`Cc1ccc(C(=S)NCc2ccc(Cl)cc2)c(O)c1`: the minimal inhibitory concentration (MIC) in [1], in [2], in assay [3], in assay [4], in assay [5] and in assay [6] was over 500 µM throughout. In addition, the MIC in [7], in assay [8], in [9], in [10], in [11] and in assay [12] was over 500 µM in each case. The MIC in assay [13], in assay [14], in assay [15] and in assay [16] was over 500 µM each time.
`Oc1ccc(Cl)cc1C(=S)NCc1ccc(F)cc1`: the MIC in assay [1] was determined as 15.6 µM (≈ 4.62 µg/mL); in assay [2] it was 31.2 µM (≈ 9.24 µg/mL); in [3], 15.6 µM (≈ 4.62 µg/mL); in assay [4], 15.6 µM (≈ 4.62 µg/mL); in assay [5], 62.5 µM (≈ 18.5 µg/mL); in assay [6], 15.6 µM (≈ 4.62 µg/mL). Moreover, the minimum inhibitory concentration (MIC) was found to be 125 µM (≈ 37 µg/mL) in assay [7]; 15.6 µM (≈ 4.62 µg/mL) in [8]; 15.6 µM (≈ 4.62 µg/mL) in assay [9]; 7.81 µM (≈ 2.31 µg/mL) in [10]; 125 µM (≈ 37 µg/mL) in assay [11]; 125 µM (≈ 37 µg/mL) in assay [12]. The MIC in assay [13] stood at 62.5 µM (≈ 18.5 µg/mL); in assay [14], 7.81 µM (≈ 2.31 µg/mL); in assay [15], 15.6 µM (≈ 4.62 µg/mL); in assay [16], 31.2 µM (≈ 9.24 µg/mL).

The values above are taken from ChEMBL document CHEMBL1208720, “N-Benzylsalicylthioamides as novel compounds with promising antimycotic activity” (2010).
